Measurements published in patent US20240366589A1, “NHE3-BINDING COMPOUNDS AND METHODS FOR INHIBITING PHOSPHATE TRANSPORT” (Ardelyx, Inc., priority 2013, published 2024).

Assays:
[1] = test system: absorption of sodium from the intestinal lumen; experiment: Inhibition of intestinal sodium absorption: urinary sodium (uNa) 16 h after single oral dose in rats; format: in vivo, rat; conditions: oral gavage, 16 h post-dose
Procedure: (§1) Inhibition of intestinal sodium and phosphate absorption. Urinary sodium concentration and fecal form were measured to assess the ability of selected example compounds to inhibit the absorption of sodium from the intestinal lumen. Eight-week old Sprague-Dawley rats were purchased from Charles River Laboratories (Hollister, CA), were housed 2 per cage, and acclimated for at least 3 days before study initiation. Animals were fed Harlan Teklad Global 2018 rodent chow (Indianapolis, IN) and water ad libitum throughout the study and maintained in a standard light/dark cycle of 6 AM to 6 PM. On the day of the study, between 4 PM and 5 PM, a group of rats (n=6) were dosed via oral gavage with test compound, or a pharmaceutically acceptable salt thereof, or vehicle (water) at a volume of 10 mL/kg.
(§2) After dose administration animals were placed in individual metabolic cages where they were also fed the same chow in meal form and watered ad libitum. At 16 h post-dose, the urine samples were collected and fecal form was assessed by two independent observations. Fecal forms were scored according to a common scale associated with increasing fecal water to the wettest observation in the cage's collection funnel (1, normal pellet; 2, pellet adhering to sides of collection funnel due to moisture; 3, loss of normal pellet shape; 4, complete loss of shape with a blotting pattern; 5, liquid fecal streams evident). A rat's fecal form score (FFS) was determined by averaging both observational scores for all rats within a group (n=6). The vehicle group average was 1.
For urine samples, the volumes were determined gravimetrically and centrifuged at 3,600×g. The supernatants were diluted 100-fold in deionized Milli-Q water then filtered through a 0.2 μm GHP Pall AcroPrep filter plate (Pall Life Sciences, Ann Arbor, MI) prior to analysis by ion chromatography. Ten microliters of each filtered extract was injected onto a Dionex ICS-3000 ion chromatograph system (Dionex, Sunnyvale, CA). Cations were separated by an isocratic method using 25 mM methanesulfonic acid as the eluent on an IonPac CS12A 2 mm i.d.×250 mm, 8 μm particle size cation exchange column (Dionex). Sodium was quantified using standards prepared from a cation standard mix containing Li^+, Na^+, NH4^+, K^+, Mg^2+, and Ca^2+ (Dionex). The mean mass of sodium urinated for every group in the 16 h period was determined with the vehicle group usually urinating approximately 21 mg sodium. The urine Na (uNa) for rats in the test groups were expressed as a percentage of the vehicle mean and the means were compared to that of the vehicle group by utilizing a one-way analysis of variance coupled with a Dunnett's post hoc test.
Further experiments were performed to test the compounds under the persistent and prompt conditions described above, and to test their effects on urinary excretion of sodium in rats. The latter was performed by orally dosing the compounds in rats (single dose) and measuring urinary Na excretion (as a % of vehicle). The results are indicated as percentage of urinary sodium (UNa %); low values indicate relatively active compounds.

[2] = test system: absorption of sodium from the intestinal lumen; experiment: Fecal form score (FFS) 16 h after oral dose in rats; format: in vivo, rat; conditions: oral gavage, 16 h post-dose, scale 1-5
Procedure: as §1, §2

[3] = test system: phosphorus and calcium levels in the urine of rats; experiment: Urinary excretion of phosphate and calcium in rats (16 h overnight urine); format: in vivo, rat; conditions: rats, oral gavage, 16 h post-dose
Rat NHE3 = molecular target: T1, Rat NHE3 (Rattus norvegicus, UniProt P26433); experiment: Cell-based NHE3 activity under prompt conditions (OK cells, BCECF pH recovery), rat NHE3; conditions: prompt conditions
T1 construct: expressed in transfected cells; host or cells: Opossum kidney (OK) cells (ATCC), electroporation
Procedure: Cell-based activity under Prompt Conditions. Rat or human NHE3-mediated Na^+-dependent H antiport was measured using a modification of the pH sensitive dye method originally reported by Paradiso (PNAS USA. 81:7436-7440, 1984). Opossum kidney (OK) cells were obtained from the ATCC and propagated per their instructions. The rat NHE3 gene (GenBank M85300) or the human NHE3 gene (GenBank NM_004174.1) was introduced into OK cells via electroporation, and cells were seeded into 96 well plates and grown overnight. Medium was aspirated from the wells, cells were washed twice with NaCl-HEPES buffer (100 mM NaCl, 50 mM HEPES, 10 mM glucose, 5 mM KCl, 2 mM CaCl2, 1 mM MgCl2, pH 7.4), then incubated for 30 min at room temperature with NH4Cl-HEPES buffer (20 mM NH4Cl, 80 mM NaCl, 50 mM HEPES, 5 mM KCl, 2 mM CaCl2, 1 mM MgCl2, pH 7.4) containing 5 μM bis(acetoxymethyl) 3,3′-(3′,6′-bis(acetoxymethoxy)-5-((acetoxymethoxy)carbonyl)-3-oxo-3H-spiro[isobenzofuran-1,9′-xanthene]-2′,7′-diyl)dipropanoate (BCECF-AM).
Cells were washed twice with Ammonium free, Na^+-free HEPES (100 mM choline, 50 mM HEPES, 10 mM glucose, 5 mM KCl, 2 mM CaCl2, 1 mM MgCl2, pH 7.4) and incubated in the same buffer for 10 minutes at room temperature to lower intracellular pH. […] Initial rates were plotted as the average 2 or more replicates, and pIC50 values were estimated using GraphPad Prism.
Cell-based activity of NHE3 Activity under ‘Prompt’ Conditions. This assay was performed as described in Example 1 (supra).

T1 sequence (P26433 29-831): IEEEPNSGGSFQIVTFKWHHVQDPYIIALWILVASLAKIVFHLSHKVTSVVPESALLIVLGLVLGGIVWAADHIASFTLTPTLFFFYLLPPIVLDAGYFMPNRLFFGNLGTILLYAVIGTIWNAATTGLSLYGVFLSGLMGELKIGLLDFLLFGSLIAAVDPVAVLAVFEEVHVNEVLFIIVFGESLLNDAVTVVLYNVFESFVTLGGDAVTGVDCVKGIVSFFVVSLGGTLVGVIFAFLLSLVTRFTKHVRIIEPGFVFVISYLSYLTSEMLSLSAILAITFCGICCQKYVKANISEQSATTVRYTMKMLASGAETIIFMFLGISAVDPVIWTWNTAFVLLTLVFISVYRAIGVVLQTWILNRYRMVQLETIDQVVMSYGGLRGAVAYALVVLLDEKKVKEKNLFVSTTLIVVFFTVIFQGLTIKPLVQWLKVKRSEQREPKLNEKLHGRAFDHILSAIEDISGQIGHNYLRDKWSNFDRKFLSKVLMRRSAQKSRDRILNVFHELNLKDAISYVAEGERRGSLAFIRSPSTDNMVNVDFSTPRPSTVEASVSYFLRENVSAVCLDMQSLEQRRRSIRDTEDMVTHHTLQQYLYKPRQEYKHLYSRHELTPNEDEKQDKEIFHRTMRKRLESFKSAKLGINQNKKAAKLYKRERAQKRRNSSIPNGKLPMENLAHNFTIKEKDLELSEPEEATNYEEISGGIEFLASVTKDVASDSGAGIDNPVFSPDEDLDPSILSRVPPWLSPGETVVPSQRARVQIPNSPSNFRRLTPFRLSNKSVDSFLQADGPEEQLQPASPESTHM

Compound	Urine Na % of control ([1]; dose 3 mg/kg) [%]	Fecal Form Score average ([2]; dose 3 mg/kg)	Urine P % of control ([3]; dose 3 mg/kg) [%]	Prompt Rat NHE3 pIC50 (Rat NHE3)	Urine Na % of control ([1]; dose 10 mg/kg) [%]	Fecal Form Score average ([2]; dose 10 mg/kg)	Urine P % of control ([3]; dose 10 mg/kg) [%]	Urine Na % of control ([1]; dose 1 mg/kg) [%]	Fecal Form Score average ([2]; dose 1 mg/kg)	Urine P % of control ([3]; dose 1 mg/kg) [%]
CN1Cc2c(Cl)cc(Cl)cc2[C@H](c2cccc(S(=O)(=O)NCCOCCOCCNC(=O)CCC(CCC(=O)NCCOCCOCCNS(=O)(=O)c3cccc([C@@H]4CN(C)Cc5c(Cl)cc(Cl)cc54)c3)(CCC(=O)NCCOCCOCCNS(=O)(=O)c3cccc([C@@H]4CN(C)Cc5c(Cl)cc(Cl)cc54)c3)NC(=O)[C@H]3CCCC[C@@H]3C(=O)O)c2)C1 (racemic) [compound 141]	63	2	24							
CC(C)CCC[C@@H](C)[C@H]1CC[C@H]2[C@@H]3CC=C4C[C@@H](OC(=O)NCCOCCOCCNC(=O)N(CCNC(=O)NCCOCCOCCNS(=O)(=O)c5cccc([C@@H]6CN(C)Cc7c(Cl)cc(Cl)cc76)c5)CCNC(=O)NCCOCCOCCNS(=O)(=O)c5cccc([C@@H]6CN(C)Cc7c(Cl)cc(Cl)cc76)c5)CC[C@]4(C)[C@H]3CC[C@]12C [compound 121]	92	1	151	<5.00						
CCCCCCCCCCC(=O)NCCOCCOCCOCCNS(=O)(=O)c1cccc([C@@H]2CN(C)Cc3c(Cl)cc(Cl)cc32)c1 [compound 92]				<5.00	62	1	70			
CC(C)CCC[C@@H](C)[C@H]1CC[C@H]2[C@@H]3CC=C4C[C@@H](OC(=O)NCCOCCOCCOCCNS(=O)(=O)c5cccc([C@@H]6CN(C)Cc7c(Cl)cc(Cl)cc76)c5)CC[C@]4(C)[C@H]3CC[C@]12C [compound 125]				<5.00	81	1	278			
CCCCCCCCOCCOCCOCCOCCOCCOC(=O)NCCOCCOCCOCCNS(=O)(=O)c1cccc([C@@H]2CN(C)Cc3c(Cl)cc(Cl)cc32)c1 [compound 102]				6.60	86	1	92			
CCCCCCCCOc1ccc(CNCCOCCOCCOCCNS(=O)(=O)c2cccc([C@@H]3CN(C)Cc4c(Cl)cc(Cl)cc43)c2)cc1 [compound 111]				<5.00	60	2	69			
CN1Cc2c(Cl)cc(Cl)cc2[C@H](c2cccc(S(=O)(=O)NCCOCCOCCNC(=O)CN(CCOCCOCCOCCNC(=O)c3ccc(-c4ccc(Cl)cc4)cc3)CC(=O)NCCOCCOCCNS(=O)(=O)c3cccc([C@@H]4CN(C)Cc5c(Cl)cc(Cl)cc54)c3)c2)C1 [compound 105]	119	1	154	5.90						
CN1Cc2c(Cl)cc(Cl)cc2C(c2cccc(S(N)(=O)=O)c2)C1 (stereo not drawn) [compound 1]				6.60	87	1	52			
CN1Cc2c(Cl)cc(Cl)cc2C(c2cccc(S(=O)(=O)NCCOCCOCCNC(=O)CN(CCOCCOCCOCCN)CC(=O)NCCOCCOCCNS(=O)(=O)c3cccc([C@@H]4CN(C)Cc5c(Cl)cc(Cl)cc54)c3)c2)C1 (stereo in doubt) [compound 120]	71	1	71	7.80						
CCC(=O)NCCOCCOCCOCCNS(=O)(=O)c1cccc([C@@H]2CN(C)Cc3c(Cl)cc(Cl)cc32)c1 [compound 103]				6.70	40	1	71			
CN1Cc2c(Cl)cc(Cl)cc2[C@H](c2cccc(S(=O)(=O)NCCOCCOCCOCCNC(=O)c3ccc(-c4ccc(Cl)cc4)cc3)c2)C1 [compound 93]				<5.00	78	1	75			
CN1Cc2c(Cl)cc(Cl)cc2[C@H](c2cccc(S(=O)(=O)NCCOCCOCCNC(=O)NCCN(CCNC(=O)NCCOCCOCCNS(=O)(=O)c3cccc([C@@H]4CN(C)Cc5c(Cl)cc(Cl)cc54)c3)C(=O)NCCOCCOCCN)c2)C1 [compound 108]	13	4	51	8.40						
CN(CC(=O)NCCOCCOCCNS(=O)(=O)c1ccc(O[C@H]2c3ccccc3C[C@@H]2N2CCCCC2)cc1)CC(=O)NCCOCCOCCNS(=O)(=O)c1ccc(O[C@H]2c3ccccc3C[C@@H]2N2CCCCC2)cc1 (racemic) [compound 50]					82	1	50			
C=CC(=O)NCCOCCOCCOCCNS(=O)(=O)c1cccc([C@@H]2CN(C)Cc3c(Cl)cc(Cl)cc32)c1 [compound 104]				6.70	56	2	62			
CN1Cc2c(Cl)cc(Cl)cc2[C@@H](c2cccc(S(=O)(=O)NCCOCCOCCNC(=O)NCCCCNC(=O)NCCOCCOCCNS(=O)(=O)c3cccc([C@@H]4CN(C)Cc5c(Cl)cc(Cl)cc54)c3)c2)C1 [compound 39]				7.30	68	1	130	71	1	166
CN1Cc2c(Cl)cc(Cl)cc2[C@H](c2cccc(S(=O)(=O)NCCOCCOCCOCCNCc3ccc(-c4ccc(Cl)cc4)cc3)c2)C1 [compound 112]				<5.00	73	1	67			
CN1Cc2c(Cl)cc(Cl)cc2[C@H](c2cccc(S(=O)(=O)NCCOCCOCCNC(=O)NCCN(CCNC(=O)NCCOCCOCCNS(=O)(=O)c3cccc([C@@H]4CN(C)Cc5c(Cl)cc(Cl)cc54)c3)C(=O)NCCOCCOCCNC(=O)c3ccc(-c4ccc(Cl)cc4)cc3)c2)C1 [compound 110]	63	1	68	5.80						
